{"source": "patent US9738677B2", "about": "“Amphotericin B derivative with reduced toxicity” (priority 2014, dated 2017)", "key": {"[1]": {"test": "ITC sterol binding, POPC LUVs containing 10% cholesterol", "procedure": "Isothermal Titration calorimetry (ITC)\nIn an optimized isothermal titration calorimetry (ITC)-based assay, an aqueous solution of AmB was titrated with a suspension of large unilamellar vesicles (LUVs) comprised of only 1-palmitoyl-2-oleoyl-sn-glycero-3-phosphocholine (POPC), and the net exotherm was recorded. The titration was repeated using POPC LUVs containing 10% ergosterol. […] The titration was repeated using C2′epiAmB. […] The ITC assay was also conducted with cholesterol in place of ergosterol.\nExperiments were performed using a NanoITC isothermal titration calorimeter (TA Instruments, Wilmington, Del.). Solutions of the compounds to be tested were prepared by diluting a 60.0 mM stock solution of the compound in DMSO to 600 μM with K buffer (5.0 mM HEPES/KHEPES, pH=7.4). The final DMSO concentration in the solution was 1% v/v. Large unilamellar vesicles comprised of only 1-palmitoyl-2-oleoyl-sn-glycero-3-phosphocholine (POPC LUVs) were prepared and phosphorus and ergosterol content was quantified as described below. The LUV solutions were diluted with buffer and DMSO to give a final phospholipid concentration of 12.0 mM in a 1% DMSO/K buffer solution. Immediately prior to use, all solutions were incubated at 37° C. for 30 minutes and degassed under vacuum at 37° C. for 10 minutes. The reference cell of the instrument (volume=0.190 mL) was filled with a solution of 1% v/v DMSO/K buffer.\nPalmitoyl oleoyl phosphatidylcholine (POPC) was obtained as a 20 mg/mL solution in CHCl3 from Avanti Polar Lipids (Alabaster, Ala.) and was stored at −20° C. under an atmosphere of dry argon and used within 1 month. A 4 mg/mL solution of ergosterol in CHCl3 was prepared monthly and stored at 4° C. under an atmosphere of dry argon. […]\nNanoAnalyze software (TA Instruments) was used for baseline determination and integration of the injection heats, and Microsoft Excel was used for subtraction of dilution heats and the calculation of overall heat evolved. […] By this method, the overall heat evolved during the experiment was calculated using the following formula: […]"}, "C. albicans [2]": {"test_system": "C. albicans", "test": "Mouse model of disseminated candidiasis, kidney fungal burden", "type": "in vivo", "conditions": "neutropenic mice, single intraperitoneal 16 mg/kg 2 hours post infection, kidneys at 24 hours post infection", "procedure": "FIG. 7 is a bar graph depicting kidney fungal load (colony forming units, CFUs) in neutropenic mice inoculated intravenously with C. albicans, and then treated two hours later with a single intraperitoneal dose of vehicle or 16 mg/kg AmB or C2′epiAmB.\nThe antifungal efficacy of C2′epiAmB was tested in a mouse model of disseminated candidiasis. In this experiment neutropenic mice were infected with C. albicans via their tail veins, and then 2 hours post infection the mice were treated with a single intraperitoneal injection of 16 mg/kg AmB or C2′epiAmB. Then at 24 hours post infection the mice were sacrificed, and the fungal burden present in their kidneys was quantified."}, "healthy mice": {"test_system": "healthy mice", "test": "Acute toxicity, single intravenous administration, lethality", "type": "in vivo, mouse", "procedure": "FIG. 8 is a graph depicting lethality in healthy mice resulting from single intravenous administrations in the doses indicated of AmB or C2′epiAmB.\nIn a separate experiment, acute toxicity was determined by single intravenous administration of AmB or C2′epiAmB to healthy mice, followed by monitoring for lethality."}, "C. albicans [3]": {"test_system": "C. albicans", "test": "Broth microdilution MIC assay", "type": "cell-based", "conditions": "Candida albicans, 24 hours, 37° C., no visible growth", "procedure": "Exemplary methods for antifungal activity assays are as follows:\nC. albicans was cultured in a similar manner to S. cerevisiae except both liquid and solid cultures were incubated at 37° C.\nThe protocol for the broth microdilution assay was adapted from the Clinical and Laboratory Standards Institute document M27-A2. Clinical and Laboratory Standards Institute. Reference Method for Broth Dilution Antifungal Susceptibility Testing, M27-A2, Approved Standard 2nd Ed. Vol. 22, Number 15, 2002. 50 mL of YPD media was inoculated and incubated overnight at either 30° C. (S. cerevisiae) or 37° C. (C. albicans) in a shaker incubator. The cell suspension was then diluted with YPD to an OD600 of 0.10 (˜5×10^5 cfu/mL) as measured by a Shimadzu (Kyoto, Japan) PharmaSpec UV-1700 UV/Vis spectrophotometer. The solution was diluted 10-fold with YPD, and 195 μL aliquots of the dilute cell suspension were added to sterile Falcon (Franklin Lakes, N.J.) Microtest 96-well plates in triplicate. Compounds were prepared either as […] (AmB, C2′deOAmB) or 2 mM (AmdeB) stock solutions in DMSO and serially diluted to the following concentrations with DMSO: 1600, 1200, 800, 400, 320, 240, 200, 160, 120, 80, 40, 20, 10 and 5 μM. 5 μL aliquots of each solution were added to the 96-well plate in triplicate, with each column representing a different concentration of the test compound. […]"}}, "note": "“Also recorded” adds a separate entry of the source."}
{"smiles": "C[C@@H]1[C@H](O)[C@@H](C)/C=C/C=C/C=C/C=C/C=C/C=C/C=C/[C@H](O[C@@H]2O[C@H](C)[C@@H](O)[C@H](N)[C@H]2O)CC2O[C@](O)(C[C@@H](O)C[C@@H](O)[C@H](O)CC[C@@H](O)C[C@@H](O)CC(=O)O[C@H]1C)C[C@H](O)[C@H]2C(=O)O", "note": "[C2′epiAmB]", "values": [{"measurement": "Total exotherm", "setting": "[1]; 10% cholesterol LUVs, 600 μM compound", "value": "-6.43 ± 2.80", "unit": "µcal"}, {"measurement": "Binding to cholesterol (in words)", "setting": "[1]; within the limits of the binding assay", "value": "but not cholesterol; also recorded: not found to bind to cholesterol; also recorded: do not bind cholesterol"}, {"measurement": "Reduction of kidney fungal burden relative to AmB", "setting": "C. albicans [2]", "value": 0.5, "unit": "log units"}, {"measurement": "Lethality", "setting": "healthy mice; healthy mice, single intravenous doses up to 16 mg/kg", "value": "no deaths observed"}, {"measurement": "Acute toxicity compared to AmB (in words)", "setting": "healthy mice; mice", "value": "significantly less toxic; also recorded: substantially less toxic to mice"}, {"measurement": "MIC", "setting": "C. albicans [3]", "value": 2, "unit": "µM"}]}
